Experimental findings from patent US20230146395A1, “Substituted Pyrimidines and Uses Thereof” (Verge Analytics, Inc., priority 2020, published 2023) are described below.

The structures appear in SMILES notation. Where a name gives a salt, the structure may show the parent alone.

T1 sequence (Q9Y2I7 whole entry): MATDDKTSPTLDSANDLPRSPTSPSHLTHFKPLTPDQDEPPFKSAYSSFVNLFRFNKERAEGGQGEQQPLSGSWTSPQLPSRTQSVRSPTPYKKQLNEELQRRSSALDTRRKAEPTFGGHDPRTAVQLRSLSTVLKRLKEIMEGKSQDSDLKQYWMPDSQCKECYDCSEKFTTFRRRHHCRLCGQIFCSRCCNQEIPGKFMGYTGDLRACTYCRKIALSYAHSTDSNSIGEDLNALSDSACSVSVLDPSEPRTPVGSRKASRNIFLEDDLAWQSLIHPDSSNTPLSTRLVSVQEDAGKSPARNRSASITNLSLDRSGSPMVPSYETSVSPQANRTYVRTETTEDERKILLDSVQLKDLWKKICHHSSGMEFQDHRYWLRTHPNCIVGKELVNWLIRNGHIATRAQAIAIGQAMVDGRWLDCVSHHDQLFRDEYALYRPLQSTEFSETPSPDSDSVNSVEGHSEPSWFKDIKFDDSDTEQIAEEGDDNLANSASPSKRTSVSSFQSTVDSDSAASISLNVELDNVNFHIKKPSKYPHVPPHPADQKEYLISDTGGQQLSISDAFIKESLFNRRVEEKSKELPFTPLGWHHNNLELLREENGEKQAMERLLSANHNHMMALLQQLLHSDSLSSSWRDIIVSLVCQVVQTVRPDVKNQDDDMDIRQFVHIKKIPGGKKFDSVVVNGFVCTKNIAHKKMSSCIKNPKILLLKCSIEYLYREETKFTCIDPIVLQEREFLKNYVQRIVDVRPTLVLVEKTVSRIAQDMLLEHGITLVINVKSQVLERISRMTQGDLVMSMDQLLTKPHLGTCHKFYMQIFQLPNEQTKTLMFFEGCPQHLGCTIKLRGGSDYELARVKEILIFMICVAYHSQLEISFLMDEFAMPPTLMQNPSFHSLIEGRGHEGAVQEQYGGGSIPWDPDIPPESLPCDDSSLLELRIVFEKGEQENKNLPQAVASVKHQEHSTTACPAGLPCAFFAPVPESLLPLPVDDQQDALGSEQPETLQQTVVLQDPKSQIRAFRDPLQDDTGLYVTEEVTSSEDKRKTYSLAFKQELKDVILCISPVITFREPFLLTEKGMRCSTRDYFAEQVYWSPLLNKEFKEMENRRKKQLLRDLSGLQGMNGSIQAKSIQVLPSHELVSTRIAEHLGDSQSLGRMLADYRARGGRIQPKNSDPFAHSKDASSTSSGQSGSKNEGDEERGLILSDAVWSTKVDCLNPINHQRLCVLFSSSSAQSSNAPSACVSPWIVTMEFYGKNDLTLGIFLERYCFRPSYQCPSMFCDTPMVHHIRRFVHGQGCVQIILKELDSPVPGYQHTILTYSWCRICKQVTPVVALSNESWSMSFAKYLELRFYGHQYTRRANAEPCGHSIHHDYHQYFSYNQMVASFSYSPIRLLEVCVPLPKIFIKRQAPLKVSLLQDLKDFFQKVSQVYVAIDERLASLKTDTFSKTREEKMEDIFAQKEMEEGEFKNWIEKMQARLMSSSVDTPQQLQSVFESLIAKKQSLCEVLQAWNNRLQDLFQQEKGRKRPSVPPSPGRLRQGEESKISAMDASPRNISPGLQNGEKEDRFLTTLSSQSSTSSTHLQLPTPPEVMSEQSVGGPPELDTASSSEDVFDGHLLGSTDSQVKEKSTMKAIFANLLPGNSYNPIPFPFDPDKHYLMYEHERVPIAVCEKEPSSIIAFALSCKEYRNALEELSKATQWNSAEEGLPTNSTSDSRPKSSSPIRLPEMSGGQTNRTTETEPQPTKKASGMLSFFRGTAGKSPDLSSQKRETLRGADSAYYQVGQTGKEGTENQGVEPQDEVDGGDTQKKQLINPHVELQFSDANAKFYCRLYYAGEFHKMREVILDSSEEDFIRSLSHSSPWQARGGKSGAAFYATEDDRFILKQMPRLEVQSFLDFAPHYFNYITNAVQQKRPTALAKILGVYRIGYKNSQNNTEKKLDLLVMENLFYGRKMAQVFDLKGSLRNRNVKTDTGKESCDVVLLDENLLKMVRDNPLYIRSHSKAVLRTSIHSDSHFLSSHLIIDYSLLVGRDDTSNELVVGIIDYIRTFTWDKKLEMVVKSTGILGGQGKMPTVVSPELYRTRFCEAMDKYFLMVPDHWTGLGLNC

The assay addresses T1, Full length human recombinant PIKFYVE (Homo sapiens, UniProt Q9Y2I7).
T1 construct: Full length human recombinant PIKFYVE; purchased Carna Biosciences (Kobe, Japan); host or cells: baculovirus expression system
The assay can be described thus: Inhibition of PIKfyve (microfluidic electrophoresis kinase assay, PI3P/PS substrate). The class given is biochemical. The note with it: 12 concentrations. The method in brief: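 GST-tagged full-length human PIKFYVE (baculovirus; 2 nM) with fluorescent PI3P/PS (1 μM PI3P) and […] in pH 7.5 HEPES with Mg2+/Mn2+, 1% DMSO, 3 h at room temperature. PI(3,5)P product/substrate ratio read by microfluidic electrophoresis; 12-point % inhibition versus no-enzyme and DMSO controls.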
Regarding `FC(F)(F)Oc1cccc(-c2cc(Nc3nc(N4CCOCC4)c4oc(-c5ccncc5)cc4n3)[nH]n2)c1` [Compound 25, 4-morpholino-6-(4-pyridyl)-N-[5-[3-(trifluoromethoxy)phenyl]-1H-pyrazol-3-yl]furo[3,2-d]pyrimidin-2-amine, hydrogen chloride], the IC50 stood at 956 nM. For `c1ccc(Cc2cc(Nc3nc(N4CCOCC4)c4oc(-c5ccncc5)cc4n3)[nH]n2)cc1` [Compound 73, N-(5-benzyl-1H-pyrazol-3-yl)-4-morpholino-6-(pyridin-4-yl)furo[3,2-d]pyrimidin-2-amine, hydrogen chloride] the value was 141 nM. `CONC(=O)c1cc2nc(Nc3cc(-c4ccccc4)[nH]n3)nc(N3CCOCC3)c2o1` [Compound 58, N-methoxy-4-morpholino-2-[(5-phenyl-1H-pyrazol-3-yl)amino]furo[3,2-d]pyrimidine-6-carboxamide, hydrogen chloride]: the IC50 turned out to be 95 nM.

In the case of `Cn1ccc(-c2cc3nc(-n4ccc(-c5cccc(Cl)c5)n4)nc(N4CCOCC4)c3o2)n1` [Compound 193, 2-[3-(3-chlorophenyl)pyrazol-1-yl]-6-(1-methylpyrazol-3-yl)-4-morpholino-furo[3,2-d]pyrimidine], the IC50 turned out to be 24.6 nM. With `CNC(=O)c1cc2nc(Nc3cc(C(C)C)n[nH]3)nc(N3CCOCC3)c2o1` [Compound 88, 2-((5-isopropyl-1H-pyrazol-3-yl)amino)-N-methyl-4-morpholinofuro[3,2-d]pyrimidine-6-carboxamide, hydrogen chloride], the half-inhibitory concentration (IC50) came out at 7400 nM. As to `Cc1cccc(-c2ccn(-c3nc(N4CCOCC4)c4oc(-c5cc(C)n(CCN(C)C)n5)cc4n3)n2)c1` [Compound 178, N,N-dimethyl-2-[5-methyl-3-[4-morpholino-2-[3-(m-tolyl)pyrazol-1-yl]furo[3,2-d]pyrimidin-6-yl]pyrazol-1-yl]ethanamine], the IC50 was found to be 0.9 nM.

In the case of `[2H]C([2H])([2H])c1cccc(-c2ccn(-c3nc(N4CCOCC4)c4oc(-c5ccccn5)cc4n3)n2)c1` [Compound 217, 4-morpholino-6-(2-pyridyl)-2-[3-[3-(trideuteriomethyl)phenyl]pyrazol-1-yl]furo[3,2-d]pyrimidine], the IC50 is 2.2 nM. For `c1ccc(-n2ccc(Nc3nc(N4CCOCC4)c4oc(-c5ccncc5)cc4n3)n2)cc1` [Compound 48, 4-morpholino-N-(1-phenylpyrazol-3-yl)-6-(4-pyridyl)furo[3,2-d]pyrimidin-2-amine, hydrogen chloride] the value was 32 nM.

Turning to `O=C(NCC1COC1)c1cc2nc(-n3cc(-c4ccccc4)cn3)nc(N3CCOCC3)c2o1` [Compound 164, 4-morpholino-N-(oxetan-3-ylmethyl)-2-(4-phenyipyrazol-1-yl)furo[3,2-d]pyrimidine-6-carboxamide], the IC50 turned out to be 162 nM. Next, `CN1CCC(c2cc3nc(Nc4cc(-c5ccccc5)n[nH]4)nc(N4CCOCC4)c3o2)C1` (stereo not drawn) [Compound 38]: 131 nM; `c1ccc(-c2cnn(-c3nc(N4CCOCC4)c4oc(-c5ccccn5)cc4n3)c2)cc1` [Compound 161, 4-morpholino-2-(4-phenylpyrazol-1-yl)-6-(2-pyridyl)furo[3,2-d]pyrimidine]: 40.4 nM.

As for `Cn1ccc(-c2cc3nc(-n4cc(Br)cn4)nc(N4CCOCC4)c3o2)n1` [Compound 194, 2-(4-bromopyrazol-1-yl)-6-(1-methylpyrazol-3-yl)-4-morpholino-furo[3,2-d]pyrimidine], the IC50 was found to be 269 nM.

With `Cn1ccc(-c2cc3nc(-n4cc(-c5ccccc5)cn4)nc(N4CCOCC4)c3o2)n1` [Compound 190, 6-(1-methylpyrazol-3-yl)-4-morpholino-2-(4-phenylpyrazol-1-yl)furo[3,2-d]pyrimidine], the IC50 is 12.4 nM. With `c1cc(-c2cc(Nc3nc(N4CCOCC4)c4oc(-c5ccncc5)cc4n3)[nH]n2)ccn1` [Compound 6, 4-morpholino-6-(4-pyridyl)-N-[5-(4-pyridyl)-1H-pyrazol-3-yl]furo[3,2-d]pyrimidin-2-amine, hydrogen chloride], the IC50 is 44.6 nM.

For `c1ccc(-n2cc(Nc3nc(N4CCOCC4)c4oc(-c5ccncc5)cc4n3)cn2)cc1` [Compound 49, 4-morpholino-N-(1-phenylpyrazol-4-yl)-6-(4-pyridyl)furo[3,2-d]pyrimidin-2-amine, hydrogen chloride], the IC50 is 21 nM. In the case of `CS(=O)(=O)NC(=O)c1cc2nc(Nc3cc(-c4ccccc4)n[nH]3)nc(N3CCOCC3)c2o1` [Compound 65, N-(methylsulfonyl)-4-morpholino-2-((3-phenyl-1H-pyrazol-5-yl)amino)furo[3,2-d]pyrimidine-6-carboxamide hydrochloride], the IC50 stood at 235 nM. Next, `COCCNC(=O)c1cc2nc(-n3cc(-c4ccccc4)cn3)nc(N3CCOCC3)c2o1` [Compound 118, N-(2-methoxyethyl)-4-morpholino-2-(4-phenyl-1H-pyrazol-1-yl)furo[3,2-d]pyrimidine-6-carboxamide]: 311 nM.

As to `c1ccc(-c2cc(Nc3nc(N4CCOCC4)c4oc(-c5ccncc5)cc4n3)[nH]n2)nc1` [Compound 19, 4-morpholino-6-(4-pyridyl)-N-[5-(2-pyridyl)-1H-pyrazol-3-yl]furo[3,2-d]pyrimidin-2-amine, hydrogen chloride], the IC50 is 64 nM. For `O=C(c1cc2nc(-n3cc(-c4ccccc4)cn3)nc(N3CCOCC3)c2o1)N1CCC1` [Compound 67, azetidin-1-yl(4-morpholino-2-(4-phenyl-1H-pyrazol-1-yl)furo[3,2-d]pyrimidin-6-yl)methanone] the value was 928 nM; for `c1ccc(-c2cnc(Nc3nc(N4CCOCC4)c4oc(-c5ccncc5)cc4n3)o2)cc1` [Compound 46, 4-morpholino-N-(5-phenyloxazol-2-yl)-6-(4-pyridyl)furo[3,2-d]pyrimidin-2-amine, hydrogen chloride], 107 nM. Consider `CN1CCN(C(=O)c2cc3nc(Nc4cc(-c5ccccc5)[nH]n4)nc(N4CCOCC4)c3o2)CC1` [Compound 136, (4-methylpiperazin-1-yl)(4-morpholino-2-((5-phenyl-1H-pyrazol-3-yl)amino)furo[3,2-d]pyrimidin-6-yl)methanone], for which the IC50 stood at 94 nM.

With `Cn1cc(-c2cc3nc(-n4ccc(-c5ccccc5)n4)nc(N4CCOCC4)c3o2)cn1` [Compound 208, 6-(1-methylpyrazol-4-yl)-4-morpholino-2-(3-phenylpyrazol-1-yl)furo[3,2-d]pyrimidine], the IC50 is 8.2 nM. In the case of `C[C@@H](NC(=O)c1cc2nc(Nc3cc(-c4ccccc4)n[nH]3)nc(N3CCOCC3)c2o1)C1CC1` [Compound 64, (R)—N-(1-cyclopropylethyl)-4-morpholino-2-((5-phenyl-1H-pyrazol-3-yl)amino)furo[3,2-d]pyrimidine-6-carboxamide hydrochloride], the IC50 turned out to be 0.9 nM. As to `c1ccc(-c2ccn(-c3nc(N4CCOCC4)c4oc(-c5cccnc5)cc4n3)n2)cc1` [Compound 156, 4-morpholino-2-(3-phenyl-1H-pyrazol-1-yl)-6-(pyridin-3-yl)furo[3,2-d]pyrimidine], the IC50 was 152 nM. For `Cc1cccc(-c2cnn(-c3nc(N4CC(F)(F)OC(F)(F)C4)c4oc(-c5cccnc5)cc4n3)c2)c1` [Compound 133, 6-(pyridin-3-yl)-4-(2,2,6,6-tetrafluoromorpholino)-2-(4-(m-tolyl)-1H-pyrazol-1-yl)furo[3,2-d]pyrimidine] the value was greater than 20000 nM; for `Cc1cccc(-c2cc(Nc3nc(N4CCOCC4)c4oc(C5CCN(C)C5)cc4n3)[nH]n2)c1` (stereo not drawn) [Compound 39, 6-(1-methylpyrrolidin-3-yl)-4-morpholino-N-(3-(m-tolyl)-1H-pyrazol-5-yl)furo[3,2-d]pyrimidin-2-amine hydrochloride], 2560 nM; for `c1cc(-c2cc3nc(Nc4cc(-c5ccsc5)n[nH]4)nc(N4CCOCC4)c3o2)ccn1` [Compound 76, 4-morpholino-6-(pyridin-4-yl)-N-(5-(thiophen-3-yl)-1H-pyrazol-3-yl)furo[3,2-d]pyrimidin-2-amine, hydrogen chloride], 1.1 nM. For `Cc1c(C(=O)NC2CC2)oc2c(N3CCOCC3)nc(-n3ccc(-c4ccccc4)n3)nc12` [Compound 184, N-cyclopropyl-7-methyl-4-morpholino-2-(3-phenylpyrazol-1-yl)furo[3,2-d]pyrimidine-6-carboxamide] the value was 1430 nM. On to `Cc1cccc(-c2ccn(-c3nc(N4CCOCC4)c4oc(-c5cnn(C)c5)cc4n3)n2)c1` [Compound 205, 6-(1-methylpyrazol-4-yl)-4-morpholino-2-[3-(m-tolyl)pyrazol-1-yl]furo[3,2-d]pyrimidine], for which the IC50 is 1.3 nM. For `NC(=O)c1cc2nc(Nc3cc(-c4ccccc4)n[nH]3)nc(N3CCOCC3)c2o1` [Compound 52, 4-morpholino-2-((3-phenyl-1H-pyrazol-5-yl)amino)furo[3,2-d]pyrimidine-6-carboxamide hydrochloride] the value was 47 nM.

Regarding `Cc1cc(Nc2nc(N3CCOCC3)c3occc3n2)[nH]n1` [Compound 9, N-(5-methyl-1H-pyrazol-3-yl)-4-morpholino-furo[3,2-d]pyrimidin-2-amine, hydrogen chloride], the IC50 is greater than 10000 nM. With `CC(=O)NCCn1nc(-c2cc3nc(-n4cc(-c5cccc(C)c5)cn4)nc(N4CCOCC4)c3o2)cc1C` [Compound 197, N-[2-[5-methyl-3-[4-morpholino-2-[4-(m-tolyl)pyrazol-1-yl]furo[3,2-d]pyrimidin-6-yl]pyrazol-1-yl]ethyl]acetamide], the IC50 came to 0.7 nM. Regarding `c1ccc(-c2cc(Nc3nc(N4CCOCC4)c4oc(-c5ccccn5)cc4n3)[nH]n2)cc1` [Compound 26, 4-morpholino-N-(5-phenyl-1H-pyrazol-3-yl)-6-(2-pyridyl)furo[3,2-d]pyrimidin-2-amine, hydrogen chloride], the IC50 worked out at 0.1 nM.
